Results from ChEMBL document CHEMBL4387790, “Ophiobolin-Type Sesterterpenoids from the Mangrove Endophytic Fungus Aspergillus sp. ZJ-68” (J Nat Prod, 2019).

Tests used:
[1] = molecular target: T1, Phosphotyrosine protein phosphatase (Mycobacterium tuberculosis, UniProt A0A045ISB3); test: Inhibition of Mycobacterium tuberculosis H37Ra PTPB expressed in Escherichia coli BL21 (DE3) using p-nitrophenyl phosphate as substrate preincubated for 10 mins followed by substrate addition and measured for 5 mins by spectrophotometric analysis
T1 sequence (A0A045ISB3 whole entry): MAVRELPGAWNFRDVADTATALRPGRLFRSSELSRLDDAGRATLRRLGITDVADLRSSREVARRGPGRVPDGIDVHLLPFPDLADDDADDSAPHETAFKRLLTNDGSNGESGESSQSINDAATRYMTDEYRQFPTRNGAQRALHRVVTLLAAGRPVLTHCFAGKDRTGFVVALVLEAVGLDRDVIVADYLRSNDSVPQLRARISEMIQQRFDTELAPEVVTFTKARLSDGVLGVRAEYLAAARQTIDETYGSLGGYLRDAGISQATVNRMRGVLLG

[2] = Cytotoxicity against mouse RAW264.7 cells assessed as reduction in cell viability by MTT assay; format: cell-based
RAW264.7 [3] = test: Anti-inflammatory activity in mouse RAW264.7 cells assessed as inhibition of lipopolysaccharide-induced nitric oxide production incubated for 24 hrs coincubated with LPS by Griess reagent based assay; format: functional, cell-based; conditions: RAW264.7, 24 h
RAW264.7 [4] = test: Anti-inflammatory activity in mouse RAW264.7 cells assessed as inhibition of lipopolysaccharide-induced nitric oxide production at 50 uM incubated for 24 hrs coincubated with LPS by Griess reagent based assay; format: functional; conditions: RAW264.7, 24 h
[5] = molecular target: T1, Phosphotyrosine protein phosphatase; test: Inhibition of Mycobacterium tuberculosis H37Ra PTPB using p-nitrophenyl phosphate as substrate

Row | SMILES | IC50 [1] | CC50 [2] | IC50 (RAW264.7 [3]) | inhibition at 50 µM (RAW264.7 [4]) | IC50 [5]
1 | CC1=CC(=O)[C@@H]2/C(C=O)=C\C[C@H]3[C@@H]([C@@H](C)/C=C\[C@H](O)C(C)(C)O)CC[C@]3(C)C[C@H]12 | 19 µM | > 50 µM | 21 µM |  | 
2 | CC1=CC(=O)[C@@H]2/C(C=O)=C\C[C@H]3[C@@H]([C@@H](C)/C=C\[C@@H](O)C(C)(C)O)CC[C@]3(C)C[C@H]12 | > 50 µM | > 50 µM | > 50 µM | < 40% | 
3 | CC(C)=C/C=C\[C@H](C)[C@H]1CC[C@]2(C)C[C@H]3[C@@H]4/C(=C\C=C\12)C(=O)N[C@@H]4C[C@@]3(C)O | > 50 µM | > 50 µM | > 50 µM |  | 
4 | CC(C)=C/C=C\[C@H](C)[C@H]1CC[C@]2(C)C[C@@]3(O)[C@H](C)C[C@@H](O)[C@@H]3/C(C=O)=C\C[C@@H]12 | > 50 µM | > 50 µM | > 50 µM |  | 
5 | CC(C)=C/C=C\[C@H](C)[C@H]1CC[C@]2(C)C[C@H]3[C@@H]4/C(=C\C[C@@H]12)CO[C@]4(O)C[C@@]3(C)O | > 50 µM | 18 µM |  |  | 
6 | CC(C)=C/C=C\[C@H](C)[C@H]1CC[C@]2(C)C[C@@H]3C(C)=CC(=O)[C@H]3/C(C=O)=C\C[C@@H]12 | > 50 µM | 3.8 µM |  |  | 
7 | CC1=CC(=O)[C@H]2/C(C=O)=C\C[C@H]3[C@@H]([C@@H](C)/C=C\[C@@H](O)C(C)(C)O)CC[C@]3(C)C[C@H]12 | > 50 µM | > 50 µM | > 50 µM |  | 
8 | CC(C)=C/C=C\[C@H](C)[C@H]1CC[C@]2(C)C[C@H]3[C@@H]4/C(=C\C[C@@H]12)C(=O)O[C@]4(O)C[C@@]3(C)O | 36 µM | > 50 µM | > 50 µM |  | 
9 | CC1=CC(=O)[C@H]2/C(C=O)=C\C[C@H]3[C@@H]([C@@H](C)/C=C\[C@H](O)C(C)(C)O)CC[C@]3(C)C[C@H]12 | > 50 µM | > 50 µM | 14 µM |  | 
10 | CC(C)=C/C=C\[C@H](C)[C@H]1CC[C@]2(C)C[C@@H]3C(C)=CC(=O)[C@H]3/C(CO)=C\C[C@@H]12 | 37 µM | > 50 µM | 25 µM |  | 
11 | CC(C)=C/C=C\[C@H](C)[C@H]1CC[C@]2(C)C[C@H]3[C@@H](/C(C=O)=C\C[C@@H]12)[C@H](O)C[C@@]3(C)O | > 50 µM | > 50 µM | 9.6 µM |  | 
12 | CC(C)=C/C=C\[C@H](C)[C@H]1CC[C@]2(C)C[C@H]3[C@@H](C(=O)C[C@@]3(C)O)/C(C=O)=C\C[C@@H]12 | > 50 µM | 15 µM |  |  | 
13 | CC(C)=C/C=C\[C@H](C)[C@H]1CC[C@]2(C)C[C@H]3[C@@H]4/C(=C\C=C\12)C(=O)N[C@]4(O)C[C@@]3(C)O | 39 µM | > 50 µM | > 50 µM |  | 
14 | COc1ccc2c(c1)c(CC(=O)O)c(C)n2C(=O)c1ccc(Cl)cc1 [INDOMETHACIN] |  | > 50 µM | 38 µM |  | 
15 | CC(C)=C/C=C\[C@H](C)[C@H]1CC[C@]2(C)CC3=C(C(=O)C[C@H]3C)/C(CO)=C\C[C@@H]12 | > 50 µM | > 50 µM | 14 µM |  | 
16 | CC(C)=C/C=C\[C@H](C)[C@H]1CC[C@]2(C)C[C@H]3[C@H]4/C(=C\C[C@@H]12)CO[C@@]4(O)C[C@@]3(C)O | > 50 µM | 31 µM |  |  | 
17 | CC(C)=C/C=C\[C@H](C)[C@H]1CC[C@]2(C)C[C@@H]3C(C)=CC(=O)[C@@H]3/C(C=O)=C\C[C@@H]12 | 24 µM | 21 µM |  |  | 
18 | CC1=CC(=O)[C@H]2/C(C=O)=C\C[C@H]3[C@@H]([C@@H](C)/C=C\[C@@H]4OC4(C)C)CC[C@]3(C)C[C@H]12 | 35 µM | > 50 µM | 24 µM |  | 
19 | CC(C)=C/C=C\[C@H](C)[C@H]1CC[C@]2(C)C[C@H]3[C@H]4/C(=C\C[C@@H]12)C(=O)O[C@H]4C[C@@]3(C)O | > 50 µM | 29 µM |  |  | 
20 | CC(C)=C/C=C\[C@H](C)[C@H]1CC[C@]2(C)C[C@H]3[C@H](C(=O)C[C@@]3(C)O)/C(C=O)=C\C[C@@H]12 | > 50 µM | 4.8 µM |  |  | 
21 | CO[C@]12C[C@@](C)(O)[C@H]3C[C@@]4(C)CC[C@H]([C@@H](C)/C=C\C=C(C)C)[C@@H]4C/C=C(/C(=O)N1)[C@@H]32 | 42 µM | > 50 µM | 42 µM |  | 
22 | CO[C@]12C[C@@](C)(O)[C@H]3C[C@@]4(C)CC[C@H]([C@@H](C)/C=C\C=C(C)C)/C4=C/C=C(/C(=O)N1)[C@@H]32 | > 50 µM | > 50 µM | > 50 µM |  | 
23 | C[C@@H](/C=C\[C@H](O)C(C)(C)O)[C@H]1CC[C@]2(C)C[C@H]3[C@@H](C(=O)C[C@@]3(C)O)/C(C=O)=C\C[C@@H]12 | > 50 µM | > 50 µM | 16 µM |  | 
24 | CC(C)[C@H]1CC[C@@]2(C)CC[C@]3(CO)CC4=C(C(=O)O)CC[C@H]4[C@]4(C)C[C@@H]4[C@H]3[C@H]12 |  |  |  |  | 2200 nM
25 | CC(C)=C/C=C\[C@H](C)[C@H]1CC[C@]2(C)C[C@@H]3C(C)=CC(=O)[C@H]3/C(C(=O)O)=C\C[C@@H]12 | 28 µM | > 50 µM | > 50 µM |  | 
